Laboratory results from patent US9833497B2, “Human originated EGF domain proteins and use of the same” (CHENGDU SOURCEBIO LIMITED-LIABILITY COMPANY, priority 2013, dated 2017).

Columns and labels:
Format in all cases: cell-based
Aeromonas hydrophila = assay: MIC against Gram-negative bacteria: Aeromonas hydrophila; conditions: 5×10^5 CFU/mL
How it was run: (§1)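 MIC, the lowest recombinant protein concentration giving no bacterial growth, found by two-fold serial dilution of human EGF-domain proteins in triplicate. Inoculum 5×10^5 CFU/mL in LB from cultures at McFarland 0.5; plates incubated at 37° C, 175 rpm shaking.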

E. coli BL21 = assay: MIC against Gram-negative bacteria: E. coli BL21; conditions: 5×10^5 CFU/mL
How it was run: as §1

Serratia marcescens = assay: MIC against Gram-negative bacteria: Serratia marcescens; conditions: 5×10^5 CFU/mL
How it was run: as §1

E. coli DH5α = assay: Antibacterial activity: MIC and growth curve against E. coli DH5α in 96-well plate; conditions: minimal inhibitory concentration against E. coli DH5α; 96-well plate, 5×10^5 CFU/mL, 37° C., judged after 8 h
How it was run: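 Log-phase bacteria (OD600 ~0.5) resuspended in LB at 5×10^5 CFU/mL, exposed to recombinant protein at 50, 25, 12.5 μg/mL final in triplicate, 37 °C shaking at 175 rpm. OD600 read every 30 min; MIC is lowest concentration showing no growth.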

Klebsiella pneumonia = assay: MIC against Gram-negative bacteria: Klebsiella pneumonia; conditions: 5×10^5 CFU/mL
How it was run: as §1

Pseudomonas aeruginosa = assay: MIC against Gram-negative bacteria: Pseudomonas aeruginosa; conditions: 5×10^5 CFU/mL
How it was run: as §1

Enterobacter cloacae = assay: MIC against Gram-negative bacteria: Enterobacter cloacae; conditions: 5×10^5 CFU/mL
How it was run: as §1

Citrobacter diversus = assay: MIC against Gram-negative bacteria: Citrobacter diversus; conditions: 5×10^5 CFU/mL
How it was run: as §1

Proteus mirabilis = assay: MIC against Gram-negative bacteria: Proteus mirabilis; conditions: 5×10^5 CFU/mL
How it was run: as §1

Moraxella catarrhalis = assay: MIC against Gram-negative bacteria: Moraxella catarrhalis; conditions: 5×10^5 CFU/mL
How it was run: as §1

Proteus vulgaris = assay: MIC against Gram-negative bacteria: Proteus vulgaris; conditions: 5×10^5 CFU/mL
How it was run: as §1

[1] = E. coli BL21, 10 h cultivation at 37° C.

| Substance | MIC (E. coli DH5α) | MIC (μg/mL) A. hydrophila (Aeromonas hydrophila; 10 h cultivation at 37° C.) | MIC (μg/mL) E. coli BL21 (E. coli BL21; [1]) | MIC (μg/mL) S. marcescens (Serratia marcescens; 10 h cultivation at 37° C.) | MIC (μg/mL) K. pneumonia (Klebsiella pneumonia; 10 h cultivation at 37° C.) | MIC (μg/mL) P. aeruginosa (Pseudomonas aeruginosa; 10 h cultivation at 37° C.) | MIC (μg/mL) E. cloacae (Enterobacter cloacae; 10 h cultivation at 37° C.) | MIC (μg/mL) C. diversus (Citrobacter diversus; 10 h cultivation at 37° C.) | MIC (μg/mL) P. mirabilis (Proteus mirabilis; 10 h cultivation at 37° C.) | MIC (μg/mL) M. catarrhalis (Moraxella catarrhalis; 10 h cultivation at 37° C.) | MIC (μg/mL) P. vulgaris (Proteus vulgaris; 10 h cultivation at 37° C.) | other results |
| --- | --- | --- | --- | --- | --- | --- | --- | --- | --- | --- | --- | --- |
| PRT1227 (NLKLCDASNHCDRHGVCNNFNHCHCEKGYNPPYCQ; listed as Homo sapiens) | 50 µg/mL | – | – | – | – | – | – | – | – | – | – | MIC against A. hydrophila (Aeromonas hydrophila; Aeromonas hydrophila, 96-well plate, 37° C., 10 h): 12.5 µg/mL; MIC against E. coli BL21 (E. coli BL21; E. coli BL21, 96-well plate, 37° C., 10 h): 25 µg/mL; MIC against S. marcescens (Serratia marcescens; Serratia marcescens, 96-well plate, 37° C., 10 h): 12.5 µg/mL; MIC against K. pneumonia (Klebsiella pneumonia; Klebsiella pneumonia, 96-well plate, 37° C., 10 h): 25 µg/mL; MIC against P. aeruginosa (Pseudomonas aeruginosa; Pseudomonas aeruginosa, 96-well plate, 37° C., 10 h): 12.5 µg/mL; MIC against E. cloacae (Enterobacter cloacae; Enterobacter cloacae, 96-well plate, 37° C., 10 h): 12.5 µg/mL; MIC against C. diversus (Citrobacter diversus; Citrobacter diversus, 96-well plate, 37° C., 10 h): 12.5 µg/mL; MIC against P. mirabilis (Proteus mirabilis; Proteus mirabilis, 96-well plate, 37° C., 10 h): 12.5 µg/mL; MIC against M. catarrhalis (Moraxella catarrhalis; Moraxella catarrhalis, 96-well plate, 37° C., 10 h): 12.5 µg/mL; MIC against P. vulgaris (Proteus vulgaris; Proteus vulgaris, 96-well plate, 37° C., 10 h): 25 µg/mL |
| PRT1471 (GKNWCEEDMENGGCEYLCLPAPQINDHSPKYTCSCPSGYNVEENGRDCQ; listed as Homo sapiens) | 12.5 µg/mL | – | – | – | – | – | – | – | – | – | – | MIC against A. hydrophila (Aeromonas hydrophila; Aeromonas hydrophila, 10 h cultivation at 37° C.): 25 µg/mL; MIC against E. coli BL21 (E. coli BL21; [1]): 25 µg/mL; MIC against S. marcescens (Serratia marcescens; Serratia marcescens, 10 h cultivation at 37° C.): 25 µg/mL; MIC against K. pneumonia (Klebsiella pneumonia; Klebsiella pneumonia, 10 h cultivation at 37° C.): 12.5 µg/mL; MIC against P. aeruginosa (Pseudomonas aeruginosa; Pseudomonas aeruginosa, 10 h cultivation at 37° C.): 50 µg/mL; MIC against E. cloacae (Enterobacter cloacae; Enterobacter cloacae, 10 h cultivation at 37° C.): 50 µg/mL; MIC against C. diversus (Citrobacter diversus; Citrobacter diversus, 10 h cultivation at 37° C.): 50 µg/mL; MIC against P. mirabilis (Proteus mirabilis; Proteus mirabilis, 10 h cultivation at 37° C.): 25 µg/mL; MIC against M. catarrhalis (Moraxella catarrhalis; Moraxella catarrhalis, 10 h cultivation at 37° C.): 25 µg/mL; MIC against P. vulgaris (Proteus vulgaris; Proteus vulgaris, 10 h cultivation at 37° C.): 50 µg/mL |
| PRT809 (NESCTCANGAACSPIDGSCSCTPGWLGDTCE; listed as Homo sapiens) | 25 µg/mL | 12.5 µg/mL | 12.5 µg/mL | 25 µg/mL | 25 µg/mL | 25 µg/mL | 50 µg/mL | 25 µg/mL | 25 µg/mL | 50 µg/mL | 12.5 µg/mL | – |
| PRT168 (CLPGCDEQHGFCDKPGECKCRVGWQGRYC; listed as Homo sapiens) | 25 µg/mL | 50 µg/mL | 25 µg/mL | 12.5 µg/mL | 25 µg/mL | 12.5 µg/mL | 12.5 µg/mL | 12.5 µg/mL | 12.5 µg/mL | 50 µg/mL | 50 µg/mL | – |
| PRT580 (CDCDPMGSQDGGRCDSHDDPALGLVSGQCRCKEHVVGTRCQQCRDGFFGLSISDRLGCRR; listed as Homo sapiens) | 12.5 µg/mL | – | – | – | – | – | – | – | – | – | – | MIC against A. hydrophila (Aeromonas hydrophila; 96-well plate, 37° C., 10 h): 25 µg/mL; MIC against E. coli BL21 (E. coli BL21; 96-well plate, 37° C., 10 h): 25 µg/mL; MIC against S. marcescens (Serratia marcescens; 96-well plate, 37° C., 10 h): 12.5 µg/mL; MIC against K. pneumonia (Klebsiella pneumonia; 96-well plate, 37° C., 10 h): 25 µg/mL; MIC against P. aeruginosa (Pseudomonas aeruginosa; 96-well plate, 37° C., 10 h): 12.5 µg/mL; MIC against E. cloacae (Enterobacter cloacae; 96-well plate, 37° C., 10 h): 12.5 µg/mL; MIC against C. diversus (Citrobacter diversus; 96-well plate, 37° C., 10 h): 12.5 µg/mL; MIC against P. mirabilis (Proteus mirabilis; 96-well plate, 37° C., 10 h): 12.5 µg/mL; MIC against M. catarrhalis (Moraxella catarrhalis; 96-well plate, 37° C., 10 h): 50 µg/mL; MIC against P. vulgaris (Proteus vulgaris; 96-well plate, 37° C., 10 h): 50 µg/mL |
| PRT854 (TCSMANCQYGCDVVKGQIRCQCPSPGLQLAPDGRTCV; listed as Homo sapiens) | 12.5 µg/mL | 12.5 µg/mL | 12.5 µg/mL | 12.5 µg/mL | 12.5 µg/mL | 100 µg/mL | 12.5 µg/mL | 12.5 µg/mL | 12.5 µg/mL | 50 µg/mL | 50 µg/mL | – |
